In patent US9309222B2, “Phenyl linked quinolinyl modulators of RORγt” (Janssen Pharmaceutica NV, priority 2012, dated 2016) one finds IC50, inhibition and Kd data, which are given here for 23 compounds.

“And” between values parts separate entries of the source, which are not always exact repeats. Identical values can stand only once. Counter-ions that a name gives are not always drawn.

The target of one experiment is T1, human RORγt LBD (Homo sapiens, UniProt P51449).
T1 construct: expressed in transfected cells
T1 sequence (P51449 258-518): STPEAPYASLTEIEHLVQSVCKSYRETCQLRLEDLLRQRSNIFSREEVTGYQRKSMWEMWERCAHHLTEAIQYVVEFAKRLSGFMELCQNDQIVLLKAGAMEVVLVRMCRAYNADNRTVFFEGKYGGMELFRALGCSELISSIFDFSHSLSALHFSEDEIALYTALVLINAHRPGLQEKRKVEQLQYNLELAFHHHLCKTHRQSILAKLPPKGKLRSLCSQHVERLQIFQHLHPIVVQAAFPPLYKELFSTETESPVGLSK
Kind of experiment: RORγt reporter assay (GAL4-RORγt LBD luciferase in HEK293T cells). Format: cell-based. The settings on record: for IC50: HEK293T cells, 24 hours compound treatment; for inhibition at 6 µM: HEK-293T, read-out: RORγt reporter Assay, % inhibition @ 6 μM, HEK293T cells, 6 μM compound. The gist of the method:
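Read-out is the firefly-to-renilla luciferase ratio versus compound concentration, after 24 h compound exposure of cells in phenol-red-free DMEM/5% lipid-reduced FCS. Cells were HEK293T bulk-transfected with a GAL4-responsive firefly reporter (pGL4.31) and GAL4 DBD–wild-type human RORγt LBD fusion (pBIND, renilla as transfection/viability control).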
For orientation: In a reporter assay the amount or activity of a reporter protein is the signal.

Experiment [1] has as its target T2, human RORγt ligand binding domain (RORγt LBD) (Homo sapiens, UniProt P51449).
T2 construct: His-tag (N); TurboTEV protease cleavage site (ENLYFQG) (N); made in house; host or cells: E. coli (pHIS1, modified pET vector)
T2 sequence (P51449 with tags, fused parts or gaps): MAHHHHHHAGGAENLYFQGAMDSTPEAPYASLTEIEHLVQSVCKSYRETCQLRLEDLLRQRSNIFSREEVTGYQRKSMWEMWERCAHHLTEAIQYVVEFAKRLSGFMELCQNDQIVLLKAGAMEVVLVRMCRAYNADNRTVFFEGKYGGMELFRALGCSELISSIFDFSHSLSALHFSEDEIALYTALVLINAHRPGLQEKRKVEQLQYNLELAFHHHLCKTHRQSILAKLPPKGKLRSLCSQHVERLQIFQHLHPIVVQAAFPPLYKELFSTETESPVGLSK
Kind of experiment: RORγt ThermoFluor assay (thermal shift, ligand binding affinity). The settings on record: estimated from concentration response of thermal shift. An outline of the steps:
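Thermal shift of 0.065 mg/mL RORγt with 60 μM 1,8-ANS in 100 mM Hepes pH 7.0, 10 mM NaCl, 2.5 mM GSH, 0.002% Tween-20. Compounds in 1:2 series from 10 mM DMSO stock. Dye fluorescence (500 nm emission) tracked versus temperature; ΔTm used to derive KD.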

As to `CCOc1nc2ccc(C(O)(c3ccncc3)c3cncn3C)cc2c(OCC)c1-c1ccccc1` (stereo not drawn) [Example 82, (2,4-Diethoxy-3-phenylquinolin-6-yl)(1-methyl-1H-imidazol-5-yl)pyridin-4-ylmethanol•TFA], at human RORγt LBD, the half-maximal inhibitory concentration (IC50) (commonly the concentration that inhibits the measured activity by half) was ~4 µM and the inhibition (in general, the relative decrease from the control value, in per cent) at 6 µM was 71%. Besides, the Kd (usually the concentration at which binding is half-saturated) in experiment [1] was 0.56 µM.

Take `CCCCc1c(-c2ccccc2)cnc2ccc(C(O)(c3ccncc3)c3cncn3C)cc12` (stereo not drawn) [Example 83, (4-Butyl-3-phenylquinolin-6-yl)(1-methyl-1H-imidazol-5-yl)pyridin-4-ylmethanol•TFA]: at human RORγt LBD, the IC50 is > 6 µM and the inhibition at 6 µM was -3%. Further, in experiment [1], the dissociation constant Kd was 4.2 µM.

As to `CC(C)Oc1c(-c2ccccc2)c(Cl)nc2ccc(C(O)(c3ccncc3)c3cncn3C)cc12` (stereo not drawn) [Example 85, [2-Chloro-4-(1-methylethoxy)-3-phenylquinolin-6-yl](1-methyl-1H-imidazol-5-yl)pyridin-4-ylmethanol•TFA], at human RORγt LBD, it took 0.64 µM to reach half-maximal inhibition (IC50) and the inhibition at 6 µM was 92%. In experiment [1], the Kd was 0.13 µM.

Turning to `CC(C)(C)OC(=O)N1CCC(C(O)(c2cccnc2)c2ccc3nc(Cl)c(-c4ccccc4)c(Cl)c3c2)CC1` (stereo not drawn) [Example 91, tert-Butyl 4-[(2,4-dichloro-3-phenylquinolin-6-yl)(hydroxy)pyridin-3-ylmethyl]piperidine-1-carboxylate], on human RORγt LBD, the IC50 came out at 0.2 µM and the inhibition at 6 µM was found to be 97%. The Kd in experiment [1] is 0.22 µM.

With `OC(c1cccnc1)(c1ccc2nc(Cl)c(-c3ccccc3)c(Cl)c2c1)C1CCCNC1` (stereo not drawn) [Example 93, (2,4-Dichloro-3-phenylquinolin-6-yl)(piperidin-3-yl)pyridin-3-ylmethanol•TFA], at human RORγt LBD, the IC50 is > 6 µM and the inhibition at 6 µM was 49%. Also, the dissociation constant (Kd) in experiment [1] was 1.2 µM.

Turning to `CN1CCCC(C(O)(c2cccnc2)c2ccc3nc(Cl)c(-c4ccccc4)c(Cl)c3c2)C1` (stereo not drawn) [Example 94, (2,4-Dichloro-3-phenylquinolin-6-yl)(1-methylpiperidin-3-yl)pyridin-3-ylmethanol•TFA], on human RORγt LBD, the IC50 was > 6 µM and the inhibition at 6 µM worked out at 43%. Also, the Kd in experiment [1] was 2.4 µM.

On to `CCc1nc2ccc(C(O)(c3ccncc3)c3cncn3C)cc2c(CC)c1-c1ccccc1` (stereo not drawn) [Example 97, (2,4-Diethyl-3-phenylquinolin-6-yl)(1-methyl-1H-imidazol-5-yl)pyridin-4-ylmethanol•TFA], for which, at human RORγt LBD, the IC50 was determined as 0.58 µM and the inhibition at 6 µM turned out to be 100%. The equilibrium dissociation constant (Kd) in experiment [1] was 0.053 µM.

As for `CCN(CC)c1c(-c2ccccc2)c(Cl)nc2ccc(C(O)(c3cccnc3)c3cccc(Cl)c3)cc12` (stereo not drawn) [Example 101, [2-Chloro-4-(diethylamino)-3-phenylquinolin-6-yl](3-chlorophenyl)pyridin-3-ylmethanol•TFA], at human RORγt LBD, the half-maximal inhibitory concentration (IC50) came to 0.64 µM and the inhibition at 6 µM worked out at 94%. Besides, in experiment [1], the dissociation constant Kd is 2.5 µM.

Consider `CCN(CC)c1nc2ccc(C(O)(c3cccnc3)c3cccc(Cl)c3)cc2c(C)c1-c1ccccc1` (stereo not drawn) [Example 103, (3-Chlorophenyl)[2-(diethylamino)-4-methyl-3-phenylquinolin-6-yl]pyridin-3-ylmethanol•TFA], for which, at human RORγt LBD, the IC50 was 2.2 µM and the inhibition at 6 µM stood at 85%. For the same compound, the Kd in experiment [1] was 1.4 µM.

On to `CCN(CC)c1nc2ccc(C(O)(c3cccnc3)c3cccc(Cl)c3)cc2c(OC)c1-c1ccccc1` (stereo not drawn) [Example 106, (3-Chlorophenyl)[2-(diethylamino)-4-methoxy-3-phenylquinolin-6-yl]pyridin-3-ylmethanol•TFA], for which, at human RORγt LBD, the IC50 came out at 2.3 µM and the inhibition at 6 µM came out at 75%. In addition, the Kd in experiment [1] was 1.3 µM.

Consider `CN(C)c1nc2ccc(C(O)(c3ccncc3)c3cncn3C)cc2c(O)c1-c1ccccc1` (stereo not drawn) [Example 108, 2-(Dimethylamino)-6-[hydroxy(1-methyl-1H-imidazol-5-yl)pyridin-4-ylmethyl]-3-phenylquinolin-4-ol•TFA], for which, at human RORγt LBD, the IC50 is 1.1 µM and the inhibition at 6 µM was 90%. Also, the Kd in experiment [1] was 0.33 µM.

For `OC(c1ccc(C(F)(F)F)nc1)(c1cccc(Cl)c1)c1ccc2nc(Cl)c(-c3ccccc3)c(Cl)c2c1` (stereo not drawn) [Example 111, (3-Chlorophenyl)(2,4-dichloro-3-phenylquinolin-6-yl)(6-(trifluoromethyl)pyridin-3-yl)methanol], on human RORγt LBD, the IC50 is 1 µM and ~2 µM; the inhibition at 6 µM is 77%. Also, in experiment [1], the Kd was 0.64 µM.

In the case of `N#Cc1nc2ccc(C(O)(c3ccc(C(F)(F)F)nc3)c3cccc(Cl)c3)cc2c(C#N)c1-c1ccccc1` (stereo not drawn) [Example 114, 6-{(3-Chlorophenyl)(hydroxy) [6-(trifluoromethyl)pyridin-3-yl]methyl}-3-phenylquinoline-2,4-dicarbonitrile], on human RORγt LBD, the half-maximal inhibitory concentration (IC50) is 0.74 µM and the inhibition at 6 µM was 104%. The equilibrium dissociation constant (Kd) in experiment [1] was 0.61 µM.

In the case of `Cn1cncc1C(O)(c1ccc2nc(C(F)(F)F)c(-c3ccccc3)c(C#N)c2c1)c1ccccn1` (stereo not drawn) [Example 118, 6-(Hydroxy(1-methyl-1H-imidazol-5-yl)(pyridin-2-yl)methyl)-3-phenyl-2-(trifluoromethyl)quinoline-4-carbonitrile•TFA], on human RORγt LBD, the IC50 was 0.37 µM and the inhibition at 6 µM stood at 94%. Also, the equilibrium dissociation constant (Kd) in experiment [1] was 0.36 µM.

For `Cn1ccnc1C(O)(c1ccnnc1)c1ccc2nc(Cl)c(-c3ccccc3)c(Cl)c2c1` (stereo not drawn) [Example 121, (2,4-Dichloro-3-phenylquinolin-6-yl)(1-methyl-1H-imidazol-2-yl)(pyridazin-4-yl)methanol], at human RORγt LBD, the IC50 is ~2 µM and the inhibition at 6 µM came out at 72%. In experiment [1], the Kd is 1.7 µM.

On to `Cn1ccnc1C(O)(c1ccc2nc(Cl)c(-c3ccccc3)c(Cl)c2c1)c1cnccn1` (stereo not drawn) [Example 123, (2,4-Dichloro-3-phenylquinolin-6-yl)(1-methyl-1H-imidazol-2-yl)(pyrazin-2-yl)methanol], for which, at human RORγt LBD, the IC50 is ~6 µM and the inhibition at 6 µM was found to be 70%. Besides, the Kd in experiment [1] is 2.2 µM.

As to `Cn1ccnc1C(O)(c1cncnc1)c1ccc2nc(Cl)c(-c3ccccc3)c(Cl)c2c1` (stereo not drawn) [Example 125, (2,4-Dichloro-3-phenylquinolin-6-yl)(1-methyl-1H-imidazol-2-yl)(pyrimidin-5-yl)methanol], at human RORγt LBD, the 50% inhibitory concentration (IC50) amounted to 1 µM and the inhibition at 6 µM was determined as 66%. Also, the dissociation constant Kd in experiment [1] is 0.65 µM.

On to `Cn1cncc1C(O)(c1ccnnc1)c1ccc2nc(Cl)c(-c3ccccc3)c(Cl)c2c1` (stereo not drawn) [Example 126, (2,4-Dichloro-3-phenylquinolin-6-yl)(1-methyl-1H-imidazol-5-yl)(pyridazin-4-yl)methanol], for which, at human RORγt LBD, the midpoint of inhibition, the IC50, lay at 0.22 µM and the inhibition at 6 µM is 97%. In addition, the Kd in experiment [1] is 0.021 µM.

Consider `COC(c1ccc2nc(Cl)c(-c3ccccc3)c(Cl)c2c1)(c1cnccn1)c1cncn1C` (stereo not drawn) [Example 127, 2,4-Dichloro-6-(methoxy(1-methyl-1H-imidazol-5-yl)(pyrazin-2-yl)methyl)-3-phenylquinoline•TFA], for which, at human RORγt LBD, it took 1.6 µM to reach half-maximal inhibition (IC50) and the inhibition at 6 µM came to 88%. In addition, the Kd in experiment [1] was 0.99 µM.

For the compound `Cc1noc(C)c1C(O)(c1ccc(Cl)cc1)c1ccc2nc(Cl)c(-c3ccccc3)c(Cl)c2c1` (stereo not drawn) [Example 133, (4-Chlorophenyl)(2,4-dichloro-3-phenylquinolin-6-yl)(3,5-dimethylisoxazol-4-yl)methanol•TFA], on human RORγt LBD, the IC50 is > 6 µM and the inhibition at 6 µM worked out at 41%. Further, the dissociation constant (Kd) in experiment [1] is 1.5 µM.

For the compound `Cn1nncc1C(O)(c1ccc(Cl)cc1)c1ccc2nc(Cl)c(-c3ccccc3)c(Cl)c2c1` (stereo not drawn) [Example 144, (4-Chlorophenyl)(2,4-dichloro-3-phenylquinolin-6-yl)(1-methyl-1H-1,2,3-triazol-5-yl)methanol], on human RORγt LBD, it took 0.52 µM to reach half-maximal inhibition (IC50) and the inhibition at 6 µM is 102%. Also, in experiment [1], the dissociation constant Kd is 0.26 µM.

With `Cc1nc2cc(C(O)(c3ccc4nc(Cl)c(-c5ccccc5)c(Cl)c4c3)c3cncn3C)ccc2o1` (stereo not drawn) [Example 146, (2,4-Dichloro-3-phenylquinolin-6-yl)(1-methyl-1H-imidazol-5-yl)(2-methylbenzo[d]oxazol-5-yl)methanol], at human RORγt LBD, it took 0.13 µM to reach half-maximal inhibition (IC50) and the inhibition at 6 µM was 112%. Besides, in experiment [1], the Kd is 0.077 µM.

In the case of `COCCCn1cncc1C(O)(c1ccc(Cl)cc1)c1ccc2nc(Cl)c(-c3ccccc3)c(Cl)c2c1` (stereo not drawn) [Example 147, (4-Chlorophenyl)(2,4-dichloro-3-phenylquinolin-6-yl)(1-(3-methoxypropyl)-1H-imidazol-5-yl)methanol], on human RORγt LBD, it took 1.3 µM to reach half-maximal inhibition (IC50) and the inhibition at 6 µM was 97%. In experiment [1], the dissociation constant (Kd) was 1.1 µM.
